Measured values published in US9999622B2, “Pyrazolothiazole compound and medicine comprising same” (NIPPON SHINYAKU CO., LTD., priority 2014, dated 2018).
Where a name gives a salt, the structure may show the parent alone.

Columns and labels:
Assay type in all cases: biochemical
[1] = biological target: T1, JAK1 (Homo sapiens, UniProt P23458); assay: JAK tyrosine kinase inhibitory activity in the presence of 1 mM ATP (ELISA), JAK1
T1 construct: purchased Carna Biosciences, Inc
Summary of the method: (§1)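 ELISA read-out: HRP-labelled anti-phosphotyrosine antibody with TMB, absorbance 450 nm, after 1 h kinase reaction at 30 °C in presence of 1 mM ATP. Kinase diluted to 7.5 nM (JAK1) or 0.75 nM (JAK2/JAK3) in Tris-HCl pH 7.5 buffer with DTT; compounds tested in duplicate.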

[2] = biological target: T2, JAK2 (Homo sapiens, UniProt O60674); assay: JAK tyrosine kinase inhibitory activity in the presence of 1 mM ATP (ELISA), JAK2
T2 construct: purchased Carna Biosciences, Inc
T2 sequence (O60674 whole entry): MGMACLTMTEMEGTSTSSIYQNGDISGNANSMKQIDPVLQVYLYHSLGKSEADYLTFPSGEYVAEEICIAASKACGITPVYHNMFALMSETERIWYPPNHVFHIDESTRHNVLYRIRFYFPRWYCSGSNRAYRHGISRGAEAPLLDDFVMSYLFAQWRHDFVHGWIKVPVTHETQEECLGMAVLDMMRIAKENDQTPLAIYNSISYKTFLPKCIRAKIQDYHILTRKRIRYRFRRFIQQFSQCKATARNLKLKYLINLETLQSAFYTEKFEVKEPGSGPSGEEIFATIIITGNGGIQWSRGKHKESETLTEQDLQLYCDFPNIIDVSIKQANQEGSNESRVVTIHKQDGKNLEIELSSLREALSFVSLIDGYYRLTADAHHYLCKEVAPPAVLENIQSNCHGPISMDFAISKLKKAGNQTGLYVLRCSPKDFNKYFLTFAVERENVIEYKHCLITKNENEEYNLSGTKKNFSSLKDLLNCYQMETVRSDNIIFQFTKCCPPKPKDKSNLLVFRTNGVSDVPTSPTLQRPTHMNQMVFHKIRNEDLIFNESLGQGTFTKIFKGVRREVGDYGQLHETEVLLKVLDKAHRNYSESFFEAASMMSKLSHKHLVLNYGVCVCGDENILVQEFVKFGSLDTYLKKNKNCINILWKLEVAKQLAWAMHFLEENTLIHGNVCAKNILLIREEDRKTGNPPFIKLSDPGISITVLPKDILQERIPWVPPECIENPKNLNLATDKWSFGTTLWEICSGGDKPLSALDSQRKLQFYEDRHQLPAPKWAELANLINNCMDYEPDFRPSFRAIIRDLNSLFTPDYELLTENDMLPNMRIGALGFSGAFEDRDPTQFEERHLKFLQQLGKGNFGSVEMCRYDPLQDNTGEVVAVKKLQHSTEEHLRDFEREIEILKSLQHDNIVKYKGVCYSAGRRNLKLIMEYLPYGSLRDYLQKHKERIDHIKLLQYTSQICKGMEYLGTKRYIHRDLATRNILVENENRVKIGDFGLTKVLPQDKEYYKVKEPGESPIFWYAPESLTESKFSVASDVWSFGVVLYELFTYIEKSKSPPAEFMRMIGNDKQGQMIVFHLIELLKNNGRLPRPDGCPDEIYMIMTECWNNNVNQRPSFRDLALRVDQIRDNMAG
Summary of the method: as §1

[3] = biological target: T3, JAK3 (Homo sapiens, UniProt P52333); assay: JAK tyrosine kinase inhibitory activity in the presence of 1 mM ATP (ELISA), JAK3
T3 construct: purchased Carna Biosciences, Inc
T3 sequence (P52333 1-1124): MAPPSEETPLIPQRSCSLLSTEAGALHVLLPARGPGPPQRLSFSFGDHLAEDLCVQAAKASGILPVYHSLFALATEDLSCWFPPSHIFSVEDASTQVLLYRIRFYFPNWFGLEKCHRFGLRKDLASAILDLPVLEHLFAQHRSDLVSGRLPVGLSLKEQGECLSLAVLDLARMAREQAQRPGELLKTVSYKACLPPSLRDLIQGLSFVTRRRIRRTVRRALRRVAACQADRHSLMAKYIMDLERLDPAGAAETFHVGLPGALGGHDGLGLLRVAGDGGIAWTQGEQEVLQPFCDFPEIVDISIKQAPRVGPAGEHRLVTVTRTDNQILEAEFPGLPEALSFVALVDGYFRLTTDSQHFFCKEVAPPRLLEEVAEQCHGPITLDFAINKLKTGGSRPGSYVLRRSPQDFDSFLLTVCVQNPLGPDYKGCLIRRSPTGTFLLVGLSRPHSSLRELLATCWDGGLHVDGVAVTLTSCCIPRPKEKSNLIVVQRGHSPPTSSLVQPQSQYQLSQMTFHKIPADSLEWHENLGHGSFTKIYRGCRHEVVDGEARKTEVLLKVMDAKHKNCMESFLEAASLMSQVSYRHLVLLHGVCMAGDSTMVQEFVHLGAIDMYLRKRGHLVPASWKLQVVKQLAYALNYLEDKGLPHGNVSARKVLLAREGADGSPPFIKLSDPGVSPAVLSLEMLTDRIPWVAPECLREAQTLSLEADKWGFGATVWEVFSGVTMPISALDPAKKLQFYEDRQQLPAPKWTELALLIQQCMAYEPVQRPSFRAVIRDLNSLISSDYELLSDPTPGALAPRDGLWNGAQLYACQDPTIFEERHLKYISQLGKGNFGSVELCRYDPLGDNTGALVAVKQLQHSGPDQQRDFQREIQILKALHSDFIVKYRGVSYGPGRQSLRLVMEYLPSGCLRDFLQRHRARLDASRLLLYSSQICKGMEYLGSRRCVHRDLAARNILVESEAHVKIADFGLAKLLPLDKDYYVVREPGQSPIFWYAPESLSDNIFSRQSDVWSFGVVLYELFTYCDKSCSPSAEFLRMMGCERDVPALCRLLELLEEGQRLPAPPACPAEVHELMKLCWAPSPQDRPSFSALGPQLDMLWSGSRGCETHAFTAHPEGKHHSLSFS
Summary of the method: as §1

T1 sequence (P23458 whole entry): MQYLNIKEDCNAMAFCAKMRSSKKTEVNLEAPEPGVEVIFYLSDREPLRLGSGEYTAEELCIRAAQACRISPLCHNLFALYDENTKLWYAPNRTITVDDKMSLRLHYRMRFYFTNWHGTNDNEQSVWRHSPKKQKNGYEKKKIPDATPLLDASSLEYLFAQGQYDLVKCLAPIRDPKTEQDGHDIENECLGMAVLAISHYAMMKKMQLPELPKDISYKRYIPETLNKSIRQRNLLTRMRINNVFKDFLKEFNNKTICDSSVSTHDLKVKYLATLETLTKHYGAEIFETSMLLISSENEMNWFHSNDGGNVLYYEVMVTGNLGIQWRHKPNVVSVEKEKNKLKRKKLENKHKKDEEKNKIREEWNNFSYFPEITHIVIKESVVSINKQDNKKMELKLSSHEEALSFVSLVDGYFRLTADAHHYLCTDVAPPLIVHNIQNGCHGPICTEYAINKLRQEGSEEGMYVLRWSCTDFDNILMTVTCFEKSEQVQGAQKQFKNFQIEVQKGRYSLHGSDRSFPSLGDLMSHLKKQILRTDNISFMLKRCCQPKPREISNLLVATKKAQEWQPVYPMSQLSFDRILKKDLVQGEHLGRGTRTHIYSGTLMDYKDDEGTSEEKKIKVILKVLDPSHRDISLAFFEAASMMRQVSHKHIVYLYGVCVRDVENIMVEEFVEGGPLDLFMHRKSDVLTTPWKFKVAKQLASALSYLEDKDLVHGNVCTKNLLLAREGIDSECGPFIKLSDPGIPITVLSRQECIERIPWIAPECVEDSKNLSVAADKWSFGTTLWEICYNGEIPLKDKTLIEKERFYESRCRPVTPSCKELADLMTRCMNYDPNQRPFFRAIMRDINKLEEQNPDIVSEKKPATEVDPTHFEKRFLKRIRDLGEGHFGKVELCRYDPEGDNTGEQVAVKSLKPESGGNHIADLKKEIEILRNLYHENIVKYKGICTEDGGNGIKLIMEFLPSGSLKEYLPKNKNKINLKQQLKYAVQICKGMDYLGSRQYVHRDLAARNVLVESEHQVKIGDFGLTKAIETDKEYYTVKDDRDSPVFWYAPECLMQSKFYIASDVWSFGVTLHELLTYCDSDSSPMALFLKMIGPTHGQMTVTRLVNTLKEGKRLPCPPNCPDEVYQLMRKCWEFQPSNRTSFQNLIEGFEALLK

Structure (SMILES)	IC50 [1] [nM]	IC50 [2] [nM]	IC50 [3] [nM]
COC(=O)NC1CCN(C(=O)c2cc(NC3CCN(C(=O)OC(C)(C)C)CC3)nc(-c3cnn4ccsc34)n2)CC1 [Example 142, tert-Butyl 4-{[6-({4-[(methoxycarbonyl)amino]piperidin-1-yl}carbonyl)-2-(pyrazolo[5,1-b][1,3]thiazol-7-yl)pyrimidin-4-yl]amino}piperidine-1-carboxylate]	1200	> 10000	> 10000
COC(=O)NC1CCN(C(=O)c2cc(NC3(C#N)CC3)nc(-c3cnn4ccsc34)n2)CC1 [Example 144, Methyl [1-({6-[(1-cyanocyclopropyl)amino]-2-(pyrazolo[5,1-b][1,3]thiazol-7-yl)pyrimidin-4-yl}carbonyl)piperidin-4-yl]carbamate]	480	> 10000	6600
COC(=O)NC1CCN(C(=O)c2nc(-c3cnn4ccsc34)nc(N[C@@H](C)C3CC3)c2OC)CC1 [Example 145, Methyl (1-{[6-{[(1S)-1-cyclopropylethyl]amino} 5 methoxy-2-(pyrazolo[5,1-b][1,3]thiazol-7-yl)pyrimidin-4-yl]carbonyl}piperidin-4-yl)carbamate]	270	1200	1400
COC(=O)NC1CCN(C(=O)c2nc(-c3cnn4ccsc34)nc(N[C@H](C)C(C)(C)C)c2OC)CC1 [Example 146, Methyl (1-{[6-{[(2R)-3,3-dimethylbutan-2-yl]amino}-5-methoxy-2-(pyrazolo[5,1-b][1,3]thiazol-7-yl)pyrimidin-4-yl]carbonyl}piperidin-4-yl)carbamate]	270	1600	1400
CC[C@H](C)Nc1nc(-c2cnn3ccsc23)nc(C(=O)N2CCC(NC(=O)OC)CC2)c1OC [Example 153, Methyl [1-({6-[(2S)-butan-2-ylamino]-5-methoxy-2-(pyrazolo[5,1-b][1,3]thiazol-7-yl)pyrimidin 4 yl}carbonyl)piperidin-4-yl]carbamate]	210	7200	9000
CCOc1c(N[C@@H](C)C2CC2)nc(-c2cnn3ccsc23)nc1C(=O)N1CCC(NC(=O)OC)CC1 [Example 154, Methyl (1-{[6-{[(1S)-1-cyclopropylethyl]amino}-5-ethoxy-2-(pyrazolo[5,1-b][1,3]thiazol-7-yl)pyrimidin-4-yl]carbonyl}piperidin-4-yl)carbamate]	180	5300	3100
CCOc1c(N[C@H](C)C(C)(C)C)nc(-c2cnn3ccsc23)nc1C(=O)N1CCC(NC(=O)OC)CC1 [Example 155, Methyl (1-{[6-{[(2R)-3,3-dimethylbutan-2-yl]amino}-5-ethoxy-2-(pyrazolo[5,1 b][1,3]thiazol 7-yl)pyrimidin-4-yl]carbonyl}piperidin-4-yl)carbamate]	24	4600	1400
CCC1CCCCN1c1cc(C(=O)N2CCC(NC(=O)C3CC3)CC2)nc(-c2cnn3ccsc23)n1 (stereo not drawn) [Example 157, N-(1-{[6-(2-ethylpiperidin-1-yl)-2-(pyrazolo[5,1-b][1,3]thiazol-7-yl)pyrimidin-4-yl]carbonyl}piperidin-4-yl)cyclopropanecarboxamide]	310	5100	> 10000
COC(=O)NC1CCN(C(=O)c2cc(NCC(F)(F)F)nc(-c3cnn4ccsc34)n2)CC1 [Example 158, Methyl (1-2-(pyrazolo[5,1-b][1,3]thiazol-7-yl)-6-[(2,2,2-trifluoroethyl)amino]pyrimidine-4-carbonylpiperidin-4-yl)carbamate]	1300	> 10000	> 10000
O=C(NC1CCN(C(=O)c2cc(NCc3cccs3)nc(-c3cnn4ccsc34)n2)CC1)C1CC1 [Example 159, N-1-[2-(pyrazolo[5,1-b][1,3]thiazol-7-yl)-6-[(thiophen-2-yl)methyl]aminopyrimidine-4-carbonyl]piperidin-4-ylcyclopropanecarboxamide]	2600	> 10000	> 10000
O=C(NC1CCN(C(=O)c2cc(NCc3ccco3)nc(-c3cnn4ccsc34)n2)CC1)C1CC1 [Example 160, N-1-[6-[(furan-2-yl)methyl]amino-2-(pyrazolo[5,1-b][1,3]thiazol-7-yl)pyrimidine-4-carbonyl]piperidin-4-ylcyclopropanecarboxamide]	980	> 10000	> 10000

Further lines, results first:

IC50 [1] [nM]	IC50 [2] [nM]	IC50 [3] [nM]	Structure (SMILES)
1900	> 10000	> 10000	COC(=O)NC1CCN(C(=O)c2cc(NC3CCNCC3)nc(-c3cnn4ccsc34)n2)CC1 [Example 143, Methyl (1-{[6-(piperidin-4-ylamino)-2-(pyrazolo[5,1-b][1,3]thiazol-7-yl)pyrimidin-4-yl]carbonyl}piperidin-4 yl)carbamate dihydrochloride]
2600	> 10000	> 10000	COC(=O)NC1CCN(C(=O)c2cc(N[C@H]3CCN(C(=O)OC(C)(C)C)C3)nc(-c3cnn4ccsc34)n2)CC1 [Example 147, tert-Butyl (3S)-3-{[6 {(4 [(methoxycarbonyl)amino]piperidin-1-yl}carbonyl)-2-(pyrazolo[5,1-b][1,3]thiazol-7-yl)pyrimidin-4-yl]amino}pyrrolidine-1-carboxylate]
1600	> 10000	> 10000	COC(=O)NC1CCN(C(=O)c2cc(N[C@@H]3CCN(C(=O)OC(C)(C)C)C3)nc(-c3cnn4ccsc34)n2)CC1 [Example 148, tert-Butyl (3R)-3-{[6-({4-[(methoxycarbonyl)amino]piperidin-1-yl}carbonyl)-2-(pyrazolo[5,1-b][1,3]thiazol-7-yl)pyrimidin-4-yl]amino}pyrrolidine-1-carboxylate]
1000	> 10000	> 10000	COC(=O)NC1CCN(C(=O)c2cc(N[C@H]3CCNC3)nc(-c3cnn4ccsc34)n2)CC1 [Example 149, Methyl [1-({2-(pyrazolo[5,1-b][1,3]thiazol-7-yl)-6-[(3S)-pyrrolidin-3-ylamino]pyrimidin-4-yl}carbonyl)piperidin-4-yl]carbamate dihydrochloride]
5200	> 10000	> 10000	COC(=O)NC1CCN(C(=O)c2cc(N[C@@H]3CCNC3)nc(-c3cnn4ccsc34)n2)CC1 [Example 150, Methyl [1-({2-(pyrazolo[5,1-b][1,3]thiazol-7-yl)-6-[(3R)-pyrrolidin-3-ylamino]pyrimidin-4-yl}carbonyl)piperidin-4-yl]carbamate dihydrochloride]
2600	> 10000	> 10000	COC(=O)NC1CCN(C(=O)c2cc(N[C@@H]3CCN(C)C3)nc(-c3cnn4ccsc34)n2)CC1 [Example 151, Methyl (1-{[6-{[(3R)-1-methylpyrrolidin-3-yl]amino}-2-(pyrazolo[5,1-b][1,3]thiazol-7-yl)pyrimidin-4-yl]carbonyl}piperidin-4-yl)carbamate]
2300	> 10000	> 10000	COC(=O)NC1CCN(C(=O)c2cc(N[C@@H]3CCN(C(C)=O)C3)nc(-c3cnn4ccsc34)n2)CC1 [Example 152, Methyl (1-{[6-{[(3R)-1-acetylpyrrolidin-3-yl]amino}-2-(pyrazolo[5,1-b][1,3]thiazol-7-yl)pyrimidin-4-yl]carbonyl}piperidin-4-yl)carbamate]
